Measurements from ChEMBL document CHEMBL2440076, “New triarylpyrazoles as broad-spectrum anticancer agents: design, synthesis, and biological evaluation” (Eur J Med Chem, 2013).

Legend:
MCF7 = test: Growth inhibition of human MCF7 cells after 48 hrs by sulforhodamine B assay; assay type: functional; conditions: MCF7, 48 h
HOP-92 = test: Growth inhibition of human HOP92 cells assessed as cell growth at 10 uM after 48 hrs by sulforhodamine B assay; assay type: functional; conditions: HOP-92, 48 h, read-out: Activity
OVCAR-3 = test: Growth inhibition of human OVCAR3 cells after 48 hrs by sulforhodamine B assay; assay type: functional, cell-based; conditions: OVCAR-3, 48 h; for CC50: read-out: LC50 (the source's name)
SK-MEL-2 = test: Growth inhibition of human SK-MEL-2 cells after 48 hrs by sulforhodamine B assay; assay type: functional; conditions: SK-MEL-2, 48 h
OVCAR-4 = test: Growth inhibition of human OVCAR4 cells assessed as cell growth at 10 uM after 48 hrs by sulforhodamine B assay; assay type: functional; conditions: OVCAR-4, 48 h, read-out: Activity
SK-MEL-28 = test: Growth inhibition of human SK-MEL-28 cells assessed as cell growth at 10 uM after 48 hrs by sulforhodamine B assay; assay type: functional; conditions: SK-MEL-28, 48 h, read-out: Activity
HOP-62 = test: Growth inhibition of human HOP62 cells assessed as cell growth at 10 uM after 48 hrs by sulforhodamine B assay; assay type: functional; conditions: HOP-62, 48 h, read-out: Activity
ACHN = test: Growth inhibition of human ACHN cells after 48 hrs by sulforhodamine B assay; assay type: functional; conditions: for CC50: read-out: LC50 (the source's name)
[1] = Growth inhibition of human HCC2998 cells assessed as cell growth at 10 uM after 48 hrs by sulforhodamine B assay; assay type: functional; conditions: HCC 2998, 48 h, read-out: Activity
UACC-257 = test: Growth inhibition of human UACC257 cells assessed as cell growth at 10 uM after 48 hrs by sulforhodamine B assay; assay type: functional; conditions: UACC-257, 48 h, read-out: Activity
[2] = Growth inhibition of human NCI-ADR-RES cells after 48 hrs by sulforhodamine B assay; assay type: functional; conditions: for CC50: read-out: LC50 (the source's name)
SK-MEL-5 = test: Growth inhibition of human SK-MEL-5 cells after 48 hrs by sulforhodamine B assay; assay type: functional; conditions: SK-MEL-5, 48 h

Structure (SMILES) | GI50 (MCF7) | LC50 (MCF7) | TGI (MCF7) | growth at 10 µM (HOP-92) | GI50 (OVCAR-3) | IC50 (OVCAR-3) | TGI (OVCAR-3) | CC50 (OVCAR-3) | GI50 (SK-MEL-2) | LC50 (50% lethal concentration) (SK-MEL-2) | TGI (SK-MEL-2) | growth at 10 µM (OVCAR-4) | growth at 10 µM (SK-MEL-28) | growth at 10 µM (HOP-62) | GI50 (ACHN) | TGI (ACHN) | CC50 (ACHN) | growth at 10 µM [1] | growth at 10 µM (UACC-257) | GI50 [2] | other results
COc1cc(-c2nn(-c3cccc(NC(=O)c4ccccc4)c3)cc2-c2ccncc2)ccc1Cl | 335 nM | > 100000 nM | > 100000 nM | 9.19% | 334 nM | 330 nM | 10900 nM | 95800 nM | 389 nM | > 100000 nM | 4970 nM | 46.5% | 34.4% | 27.1% | 754 nM | > 100000 nM | > 100000 nM | 20.1% | 8.64% | 448 nM | TGI [2]: > 100000 nM; CC50 [2]: > 100000 nM; GI50 (SK-MEL-5): 319 nM; LC50 (concentration killing 50% of cells) (SK-MEL-5): 7100 nM; TGI (SK-MEL-5): 1380 nM
O=C(Nc1cccc(-n2cc(-c3ccncc3)c(-c3ccc(Cl)c(O)c3)n2)c1)Nc1ccc(Cl)c(C(F)(F)F)c1 | 663 nM | > 32500 nM | > 32500 nM | -30.7% | 830 nM | 830 nM | 2090 nM | > 32500 nM | 798 nM | 5840 nM | 1730 nM | -3.42% | -31.5% | -17% | 913 nM | > 32500 nM | > 32500 nM |  | -54% | 844 nM | TGI [2]: 2750 nM; CC50 [2]: > 32500 nM; GI50 (SK-MEL-5): 550 nM; LC50 (concentration killing 50% of cells) (SK-MEL-5): 2130 nM; TGI (SK-MEL-5): 1080 nM
O=C(Nc1cccc(-n2cc(-c3ccncc3)c(-c3ccc(Cl)c(O)c3)n2)c1)c1ccccc1 |  |  |  | 3.59% |  |  |  |  |  |  |  | 40.7% | 48.1% | 46.7% |  |  |  | 76.8% | 44.2% |  | 
COc1cc(-c2nn(-c3cccc(NC(=O)c4ccc(N5CCOCC5)c(C(F)(F)F)c4)c3)cc2-c2ccncc2)ccc1Cl | 285 nM | > 100000 nM | > 1000 nM | 11.5% | 222 nM | 220 nM | 1030 nM | > 100000 nM | 291 nM | > 100000 nM | 8240 nM | 52.6% | 28.4% | 29.4% | 564 nM | > 100000 nM | > 100000 nM | 8.82% | 24.3% | 228 nM | TGI [2]: > 100000 nM; CC50 [2]: > 100000 nM; GI50 (SK-MEL-5): 112 nM; LC50 (concentration killing 50% of cells) (SK-MEL-5): 7640 nM; TGI (SK-MEL-5): 675 nM
COc1cc(-c2nn(-c3cccc(NC(=O)Nc4ccc(Cl)c(C(F)(F)F)c4)c3)cc2-c2ccncc2)ccc1Cl | 919 nM | > 32500 nM | > 32500 nM | -37.5% | 889 nM | 890 nM | 2440 nM | > 32500 nM | 1010 nM | 17500 nM | 2580 nM | 20.8% | 8.8% | 5.4% | 1100 nM | 15600 nM | > 32500 nM | 8.88% | -37.6% | 1040 nM | TGI [2]: 7990 nM; CC50 [2]: > 32500 nM; GI50 (SK-MEL-5): 818 nM; LC50 (concentration killing 50% of cells) (SK-MEL-5): 10400 nM; TGI (SK-MEL-5): 2890 nM
O=C(Nc1cccc(-n2cc(-c3ccncc3)c(-c3ccc(Cl)c(O)c3)n2)c1)Nc1cccc(C(F)(F)F)c1 | 1340 nM | > 32500 nM | > 32500 nM | -17.7% | 1060 nM | 1060 nM | 6130 nM | > 32500 nM | 2020 nM | > 32500 nM | 10800 nM | 41.5% | 29.4% | 38.1% | 1290 nM | > 32500 nM | > 32500 nM | 40.1% | -11.6% | 2140 nM | TGI [2]: > 32500 nM; CC50 [2]: > 32500 nM; GI50 (SK-MEL-5): 1300 nM; LC50 (concentration killing 50% of cells) (SK-MEL-5): 13800 nM; TGI (SK-MEL-5): 4710 nM
COc1cc(-c2nn(-c3cccc(NC(=O)c4ccc(Br)c(C)c4)c3)cc2-c2ccncc2)ccc1Cl |  |  |  | 51.3% |  |  |  |  |  |  |  | 86.2% | 80.2% | 91.8% |  |  |  | 88.2% | 79.5% |  | 
COc1cc(-c2nn(-c3cccc(NC(=O)Nc4ccccc4)c3)cc2-c2ccncc2)ccc1Cl |  |  |  |  |  |  |  |  |  |  |  | 90.5% | 86.3% | 87.2% |  |  |  | 119% | 84.5% |  | 
O=C(Nc1cccc(-n2cc(-c3ccncc3)c(-c3ccc(Cl)c(O)c3)n2)c1)Nc1ccc(Cl)c(Cl)c1 | 1060 nM | > 32500 nM | > 32500 nM | -20.2% | 1050 nM | 1050 nM | 3150 nM | > 32500 nM | 1030 nM | > 32500 nM | 2640 nM | 29.4% | 24.6% | 34.4% | 1040 nM | > 32500 nM | > 32500 nM |  | -17.3% | 2740 nM | TGI [2]: > 32500 nM; CC50 [2]: > 32500 nM; GI50 (SK-MEL-5): 570 nM; LC50 (concentration killing 50% of cells) (SK-MEL-5): 2350 nM; TGI (SK-MEL-5): 1160 nM
Cc1cc(C(=O)Nc2cccc(-n3cc(-c4ccncc4)c(-c4ccc(Cl)c(O)c4)n3)c2)ccc1Br |  |  |  | 97.8% |  |  |  |  |  |  |  | 108% | 93.5% | 98% |  |  |  |  | 95.9% |  | 
O=C(Nc1cccc(-n2cc(-c3ccncc3)c(-c3ccc(Cl)c(O)c3)n2)c1)c1ccc(Cl)c(C(F)(F)F)c1 |  |  |  |  |  |  |  |  |  |  |  | 111% | 94.1% | 99.4% |  |  |  | 123% | 104% |  | 
COc1cc(-c2nn(-c3cccc(NC(=O)c4ccc(Cl)c(C(F)(F)F)c4)c3)cc2-c2ccncc2)ccc1Cl | 2240 nM | > 32500 nM | > 32500 nM | 22.5% | 2420 nM | 2420 nM | 19800 nM | > 32500 nM | 1900 nM | > 32500 nM | 19700 nM | 66% | 41.6% | 53% | 2730 nM | > 32500 nM | > 32500 nM | -8.08% | 23.5% | 1290 nM | TGI [2]: 11200 nM; CC50 [2]: > 32500 nM; GI50 (SK-MEL-5): 1380 nM; LC50 (concentration killing 50% of cells) (SK-MEL-5): 31800 nM; TGI (SK-MEL-5): 6870 nM
